According to patent publication US4650888A, “Pentaerythritol derivative” (Chugai Seiyaku Kabushiki Kaisha, priority 1984, dated 1987):

Test system: Shay rats (pylorus-ligated, gastric ulcers in the forestomach)
Assay: Anti-ulcer activity on Shay rats
Format: in vivo
Settings: male SD rats, 300 mg/kg orally, 16 hours
Description: Anti-ulcer activity on Shay rats:
Male SD rats (180-200 g) were deprived of food for 48 hours and had free access to water. Under ether anesthesia the abdomen of each rat was incised and the pylorus ligated. Concurrently the test complex was orally administered and the abdomen was closed. The animals were killed 16 hours later by an overdose, and the stomach of each rat removed. The stomach was incised along the greater curvature and examined for gastric ulcers developed in the forestomach. The damaged mucosa in shay ulcers was measured under a dissecting microscope (x10) with a square grid, summed, and arbitrarily classified into 5 degrees by an erosion index.

SMILES: O=S(=O)([O-])OCC(COCC(COS(=O)(=O)[O-])(COS(=O)(=O)[O-])COS(=O)(=O)[O-])(COS(=O)(=O)[O-])COS(=O)(=O)[O-].[Na+].[Na+].[Na+].[Na+].[Na+].[Na+] [Na salt, Sodium salt of sulfuric acid ester of dipentaerythritol]
- Erosion Index (mean ± SE): 1.4 ± 0.2
- Percent Inhibition (%) (versus control (H2O)): 58.8%
